Values joined by “and” are separate entries in the source; they are usually repeats but may differ in a detail not shown here. Equal entries are not always repeated. Where two headings read alike, the source gives them in different places. Marks after values point to notes of the source that are not given here.
Key:
[1] = test system: HeLa cells; details: 3 h, 37° C., absence of verapamil
[2] = literature; cited from earlier work
[3] = test system: microtubules of living HeLa cells; details: for Kd: read-out: cellular Kd
[4] = cited from earlier work; for ε405 nm (molar extinction coefficient): 405 nm, PBS, 10% DMSO, previously described; for Φ (quantum yield): pH 7.4, 1% DMSO, based on a previously reported PB-biotin amide
[5] = Absorbance and fluorescence spectroscopy of coumarin amides (λmax, molar extinction coefficient, quantum yield); type: physicochemical; details: for Φ (quantum yield) / ε405 nm (molar extinction coefficient): PBS; for Φ (quantum yield) / Abs. λmax / Em. λmax: 1% DMSO; for Φ (quantum yield): relative to 30; for Abs. λmax / Em. λmax: aqueous PBS; for ε405 nm (molar extinction coefficient): 405 nm, 10% DMSO
Experimental: FIG. […] FIG. 4B depicts the determination of molar extinction coefficients (ε405 nm) of 26-28 as previously described in J. Am. Chem. Soc. […] The integrated fluorescence intensity (Ex. 405 nm, Em. 420-700 nm) was plotted against the maximum absorbance of the sample at the concentration studied (100 nM-6.25 nM) as extrapolated from absorbance measurements at higher concentrations. The slope determined by linear least squares (zero intercept) is proportional to the quantum yield. Spectra were acquired with a BMG LabTech ClarioStar Plus microtiterplate reader.

[6] = physchem; details: aqueous buffers of varied pH
[7] = test system: HEK293T cells; assay: Cytotoxicity by propidium iodide staining in the FPCBA with DDR1-expressing cells; type: cell-based; details: living HEK293T cells, FPCBA competition experiments, [6FC-Dasatinib]=1 μM
Experimental: FIGS. 6A and 6B depict a fluorescent probe cellular binding assay (FPCBA) with 6FC-Dasatanib and native DDR1 kinase (IRES-mVenus). (FIG. 6A) Binding of 6FC-Dasatanib to native DDR1 expressed in living HEK293T cells by flow cytometry (2 h, 37° C.). (FIG. 6B) Competition experiments against native DDR1 in living HEK293T cells with the kinase inhibitors ponatinib and dasatinib by flow cytometry. [6FC-Dasatinib]=1 μM.
The previously reported FPCBA approach (Yin, Y. et al. J Am. Chem. Soc. 2024, 146 (1), 187-200) was used to analyze binding of small molecules to native full length DDR1 kinase overexpressed in living HEK293T cells (IRES-mVenus vector) by flow cytometry.

[8] = biological target: purified microtubules; details: literature; cited from earlier work
[9] = living HeLa cells, 3 h, 37° C., absence of verapamil
[10] = living HeLa cells, 3 h, 37° C., presence of verapamil (100 μM)

With “(2aR,4S,4aS,6R,9S,11S,12S,12bS)-9-(((2R,3S)-3-benzamido-2-hydroxy-3-phenylpropanoyl)oxy)-12-(benzoyloxy)-11-hydroxy-4-((4-(7-hydroxy-2-oxo-2H-chromene-3-carboxamido)butanoyl)oxy)-4a,8,13,13-tetramethyl-5-oxo-3,4,4a,5,6,9,10,11,12,12a-decahydro-1H-7,11-methanocyclodeca[3,4]benzo[1,2-b]oxete-6,12b(2aH)-diyldiacetate [Compound 6]” the Cellular uptake [1] was “high cellular uptake”.
In the case of `O=C(O)c1cc2cc(F)c(O)c(F)c2oc1=O` [Compound 2, Pacific Blue], the “pKa of the phenol” value [2] is listed as 4.7.
Compound `CC(=O)O[C@H]1C(=O)[C@]2(C)[C@@H](OC(=O)CCCNC(=O)c3cc4cc(F)c(O)cc4oc3=O)C[C@H]3OC[C@@]3(OC(C)=O)[C@H]2[C@H](OC(=O)c2ccccc2)[C@]2(O)C[C@H](OC(=O)[C@H](O)[C@@H](NC(=O)c3ccccc3)c3ccccc3)C(C)=C1C2(C)C` [Compound 9, (2aR,4S,4aS,6R,9S,11S,12S,12bS)-9-(((2R,3S)-3-benzamido-2-hydroxy-3-phenylpropanoyl)oxy)-12-(benzoyloxy)-4-((4-(6-fluoro-7-hydroxy-2-oxo-2H-chromene-3-carboxamido)butanoyl)oxy)-11-hydroxy-4a,8,13,13-tetramethyl-5-oxo-3,4,4a,5,6,9,10,11,12,12a-decahydro-1H-7,11-methanocyclodeca[3,4]benzo[1,2-b]oxete-6,12b(2aH)-diyl diacetate] has a Kd [3, 9] of 2400 nM and a Kd [3, 10] of 150 nM.
In the case of `CCCCCCNC(=O)c1cc2ccc(O)cc2oc1=O` [Compound 29, N-Hexyl-7-hydroxy-2-oxo-2H-chromene-3-carboxamide, reference compound], the “ε405 nm (molar extinction coefficient)” value ([4]; pH 10) is given as 22,000 (10) M^−1 cm^−1, the “Φ (quantum yield)” value ([5]; pH 7.4) is given as 0.35 and the “Φ (quantum yield)” value ([5]; pH 10) is given as 0.62. The “Abs. λmax” value ([5]; pH 7.4) was 401 nm, the “Em. λmax” value ([5]; pH 7.4) was 447 nm and the pKa [6] was 7.3.
For `CCCCCCNC(=O)c1cc2cc(F)c(O)c(F)c2oc1=O` [Compound 30, 6,8-Difluoro-N-hexyl-7-hydroxy-2-oxo-2H-chromene-3-carboxamide, reference compound], the “ε405 nm (molar extinction coefficient)” value ([4]; pH 7.4) is given as 29,000 (7.4) M^−1 cm^−1, the “Φ (quantum yield)” value [4] is given as 0.74 and the “Φ (quantum yield)” value ([4]; listed as PB-hexanamide (30)) is given as 0.74^‡. For the same compound, the “Abs. λmax” value ([5]; pH 7.4) was 403 nm, the “Em. λmax” value ([5]; pH 7.4) was 447 nm and the pKa [6] was 4.1.
With `CC(=O)O[C@H]1C(=O)[C@]2(C)[C@@H](OC(=O)CCCNC(=O)c3cc4c(F)cc(O)cc4oc3=O)C[C@H]3OC[C@@]3(OC(C)=O)[C@H]2[C@H](OC(=O)c2ccccc2)[C@]2(O)C[C@H](OC(=O)[C@H](O)[C@@H](NC(=O)c3ccccc3)c3ccccc3)C(C)=C1C2(C)C` [Compound 8, (2aR,4S,4aS,6R,9S,11S,12S,12bS)-9-(((2R,3S)-3-benzamido-2-hydroxy-3-phenylpropanoyl)oxy)-12-(benzoyloxy)-4-((4-(5-fluoro-7-hydroxy-2-oxo-2H-chromene-3-carboxamido)butanoyl)oxy)-11-hydroxy-4a,8,13,13-tetramethyl-5-oxo-3,4,4a,5,6,9,10,11,12,12a-decahydro-1H-7,11-methanocyclodeca[3,4]benzo[1,2-b]oxete-6,12b(2aH)-diyl diacetate] the “S/B (maximal signal-to-background, fold change)” value ([3]; 0.4 μM probe, absence of verapamil) was 7 fold, the “cellular Kd” value [3, 9] was “low affinity prevented accurate determination” and the Kd [3, 10] was 150 nM.
In the case of `COC(=O)c1cc2cc(F)c(O)c(F)c2oc1=O` [PB methyl ester], the “pKa of the phenol” value [2] is listed as 3.7.
In the case of `CCCCCCNC(=O)c1cc2c(F)cc(O)cc2oc1=O` [Compound 26, 5-Fluoro-N-hexyl-7-hydroxy-2-oxo-2H-chromene-3-carboxamide], the “ε405 nm (molar extinction coefficient)” value ([5]; pH 7.4) is reported as 25,000 (7.4) M^−1 cm^−1, the “Φ (quantum yield)” value ([5]; pH 7.4) is reported as 0.73 and the “Abs. λmax” value ([5]; pH 7.4) is reported as 400 nm. The “Em. λmax” value ([5]; pH 7.4) was 449 nm and the pKa [6] was 6.9.
Compound `CC(=O)O[C@H]1C(=O)[C@]2(C)[C@@H](OC(=O)CCCNC(=O)c3cc4ccc(O)c(F)c4oc3=O)C[C@H]3OC[C@@]3(OC(C)=O)[C@H]2[C@H](OC(=O)c2ccccc2)[C@]2(O)C[C@H](OC(=O)[C@H](O)[C@@H](NC(=O)c3ccccc3)c3ccccc3)C(C)=C1C2(C)C` [Compound 10, (2aR,4S,4aS,6R,9S,11S,12S,12bS)-9-(((2R,3S)-3-Benzamido-2-hydroxy-3-phenylpropanoyl)oxy)-12-(benzoyloxy)-4-((4-(8-fluoro-7-hydroxy-2-oxo-2H-chromene-3-carboxamido)butanoyl)oxy)-11-hydroxy-4a,8,13,13-tetramethyl-5-oxo-3,4,4a,5,6,9,10,11,12,12a-decahydro-1H-7,11-methanocyclodeca[3,4]benzo[1,2-b]oxete-6,12b(2aH)-diyl diacetate] has a Kd [3, 9] of 3500 nM and a Kd [3, 10] of 230 nM.
With `Cc1nc(Nc2ncc(C(=O)Nc3c(C)cccc3Cl)s2)cc(N2CCN(CCOCCNC(=O)c3cc4cc(F)c(O)cc4oc3=O)CC2)n1` [6FC-Dasatinib, N-(2-chloro-6-methylphenyl)-2-((6-(4-(2-(2-(6-fluoro-7-hydroxy-2-oxo-2H-chromene-3-carboxamido)ethoxy)ethyl)piperazin-1-yl)-2-methylpyrimidin-4-yl)amino)thiazole-5-carboxamide] the “Cytotoxicity (propidium iodide staining)” value [7] was “No cytotoxicity was observed”.
In the case of `CCCCCCNC(=O)c1cc2ccc(O)c(F)c2oc1=O` [Compound 28, 8-Fluoro-N-hexyl-7-hydroxy-2-oxo-2H-chromene-3-carboxamide], the “ε405 nm (molar extinction coefficient)” value ([5]; pH 7.4) is reported as 28,000 (7.4) M^−1 cm^−1, the “Φ (quantum yield)” value ([5]; pH 7.4) is reported as 0.69 and the “Abs. λmax” value ([5]; pH 7.4) is reported as 402 nm. The “Em. λmax” value ([5]; pH 7.4) was 457 nm and the pKa [6] was 6.
In the case of `CCCCCCNC(=O)c1cc2cc(F)c(O)cc2oc1=O` [Compound 27, 6-Fluoro-N-hexyl-7-hydroxy-2-oxo-2H-chromene-3-carboxamide], the “ε405 nm (molar extinction coefficient)” value ([5]; pH 7.4) is reported as 37,000 M^−1 cm^−1, the “ε405 nm (molar extinction coefficient)” value ([5]; pH 7.4, listed as 6FC-hexanamide (27)) is reported as 37,000 M^−1 cm^−1 and 37,000 (7.4) M^−1 cm^−1 and the “Φ (quantum yield)” value ([5]; pH 7.4) is reported as 0.84. The “Abs. λmax” value ([5]; pH 7.4) was 401 nm, the “Em. λmax” value ([5]; pH 7.4) was 451 nm and the “Brightness (product of molar extinction coefficient and quantum yield) relative to PB-hexanamide (30)” value ([5]; pH 7.4) was 145%. The pKa [6] was 6.5.
In the case of `CC(=O)O[C@H]1C(=O)[C@@]2(C)[C@H]([C@H](OC(=O)c3ccccc3)[C@]3(O)C[C@H](OC(=O)[C@H](O)[C@@H](NC(=O)c4ccccc4)c4ccccc4)C(C)=C1C3(C)C)[C@]1(OC(C)=O)CO[C@@H]1C[C@@H]2O` [paclitaxel], the Ki [8] is listed as 19 nM and 27 nM and 31 nM.
For `O=C(O)c1cc2ccc(O)cc2oc1=O` [Compound 1, 7-hydroxycoumarin-3-carboxylic acid], the “pKa of the phenol” value [2] is given as 7.0-7.5.

Reference: patent publication US20260258021A1, “MONOFLUORINATED COUMARIN FLUOROPHORES AND USES THEREOF” (Ohio State Innovation Foundation, priority 2023, published 2026)
